pIC50: −log10 of the molar value.
Key:
Acetylcholinesterase = Acetylcholinesterase (Electrophorus electricus, UniProt O42275); assay: (§1) Inhibition of electric eel AChE by Ellman's method
[1] = Lipophilicity, log D of the compound; type: physicochemical; conditions: octanol/water
[2] = molecular target: Acetylcholinesterase (Electrophorus electricus) (UniProt O42275); assay: as §1
Sequence of Acetylcholinesterase (Electrophorus electricus) (O42275 24-633 limits assumed): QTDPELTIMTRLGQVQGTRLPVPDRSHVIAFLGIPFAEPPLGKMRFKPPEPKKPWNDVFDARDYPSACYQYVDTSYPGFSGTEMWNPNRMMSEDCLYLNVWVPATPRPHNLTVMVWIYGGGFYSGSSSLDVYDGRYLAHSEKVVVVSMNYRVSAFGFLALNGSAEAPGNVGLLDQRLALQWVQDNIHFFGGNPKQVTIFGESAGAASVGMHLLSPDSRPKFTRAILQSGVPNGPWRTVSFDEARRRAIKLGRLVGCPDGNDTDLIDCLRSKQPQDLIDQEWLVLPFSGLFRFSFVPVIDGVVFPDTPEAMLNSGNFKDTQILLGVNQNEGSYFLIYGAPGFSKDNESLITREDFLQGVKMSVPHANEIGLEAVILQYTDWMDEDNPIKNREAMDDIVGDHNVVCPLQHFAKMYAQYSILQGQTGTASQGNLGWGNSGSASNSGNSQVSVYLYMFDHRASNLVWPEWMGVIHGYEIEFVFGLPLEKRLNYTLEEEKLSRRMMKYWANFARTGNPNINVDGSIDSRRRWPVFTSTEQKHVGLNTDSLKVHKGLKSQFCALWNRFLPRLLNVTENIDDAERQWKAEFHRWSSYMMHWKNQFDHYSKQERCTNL

Sequence of Acetylcholinesterase (O42275 whole entry): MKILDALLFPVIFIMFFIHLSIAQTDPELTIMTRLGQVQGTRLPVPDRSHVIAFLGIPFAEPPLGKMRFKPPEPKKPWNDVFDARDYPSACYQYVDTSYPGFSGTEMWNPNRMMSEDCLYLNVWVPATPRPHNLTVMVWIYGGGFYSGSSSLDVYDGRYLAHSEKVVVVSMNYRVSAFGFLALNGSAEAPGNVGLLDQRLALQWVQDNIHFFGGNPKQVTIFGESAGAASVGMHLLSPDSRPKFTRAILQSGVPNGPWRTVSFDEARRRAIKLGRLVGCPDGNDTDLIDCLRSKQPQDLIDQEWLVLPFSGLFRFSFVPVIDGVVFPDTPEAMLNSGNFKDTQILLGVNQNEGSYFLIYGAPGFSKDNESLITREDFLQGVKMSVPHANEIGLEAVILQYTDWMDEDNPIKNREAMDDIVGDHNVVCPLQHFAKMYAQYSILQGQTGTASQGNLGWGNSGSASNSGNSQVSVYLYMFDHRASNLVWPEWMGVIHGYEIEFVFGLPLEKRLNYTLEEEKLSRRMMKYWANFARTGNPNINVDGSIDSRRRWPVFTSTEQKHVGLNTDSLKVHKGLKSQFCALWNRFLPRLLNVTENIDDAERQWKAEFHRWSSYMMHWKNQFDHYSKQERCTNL

Row | SMILES | pIC50 (Acetylcholinesterase) | logD [1] | inhibition [2]
1 | Cc1cccc(OCC(=O)Nc2cccc(Oc3ccc4c(c3)C(=O)NC4=O)c2)c1C | 4.83 | 3.81 | –
2 | C=CCn1c2ccccc2c2nnc(SCC(=O)Nc3ccc(S(N)(=O)=O)cc3)nc21 | 5.19 | 1.34 | Dose-dependent effect
3 | CC1CCc2c(sc3nc(SCC(=O)Nc4ccc(S(N)(=O)=O)cc4)n(N)c(=O)c23)C1 (configuration not stated) | 5.23 | 2.3 | Dose-dependent effect
4 | C=CCn1c(SCCCC(=O)Nc2ccc(S(N)(=O)=O)cc2)nc2sc3c(c2c1=O)CCCC3 | 5.60 | 3.93 | Dose-dependent effect
5 | COc1cc(/C=N/NC(=O)c2ccc(COc3cccc(Cl)c3)o2)cc(Br)c1O | 5.01 | 4.86 | –
6 | O=C1Nc2cc(S(=O)(=O)Nc3ccc(Oc4ccccc4)cc3)cc3cccc1c23 | 5.00 | 3.74 | –
7 | COc1cc(/C=C/C(=O)NCCCCCNc2c3c(nc4ccccc24)CCCC3)ccc1O | – | 5.78 | –
8 | COc1ccc(NC(=O)c2ccc(NS(=O)(=O)c3cc4c5c(cccc5c3)C(=O)N4)cc2)cc1 | < 4.00 | 2.95 | –
9 | CCOc1cc(C(=O)NNC(=S)Nc2ccc(S(N)(=O)=O)cc2)cc(OCC)c1OCC | 5.32 | 2.65 | Dose-dependent effect
10 | CCOc1cc(/C=N/NC(=O)c2cc(-c3cccc(OC)c3)n[nH]2)ccc1O | 5.11 | 3.44 | –
11 | COc1cc(/C=N/NC(=O)CSc2nnc(-c3ccc(OC)c(OC)c3)n2-c2ccccc2)ccc1O | < 4.00 | 4.4 | –
12 | CCNS(=O)(=O)c1ccc(NC(=O)c2ccc(Cn3nc(C)cc3C)o2)cc1 | 5.82 | 2.01 | Dose-dependent effect
13 | C=C(C)COc1cc(C)cc2oc(=O)c(CC(=O)NCc3ccc(S(N)(=O)=O)cc3)c(C)c12 | 4.91 | 3.4 | –
14 | COc1cc(/C=C/C(=O)NCCCCNc2c3c(nc4ccccc24)CCCC3)ccc1O | – | 5.33 | –
15 | CC(=O)Nc1ccc(-c2nnc(SCC(=O)Nc3ccc(Br)cc3Cl)n2C)cc1 | 4.98 | 3.61 | –
16 | O=C1Nc2ccccc2/C1=N/NC(=O)c1ccc(Nc2nc(-c3ccccc3)cs2)cc1 | 5.02 | 4.26 | –
17 | COc1cc(/C=N/NC(=O)c2ccc(COc3c(F)c(F)c(F)c(F)c3F)cc2)ccc1O | 5.17 | 5.02 | –
